Experimental data: US10294202B2, “Pyrrolidinones as herbicides” (FMC Corporation, priority 2013, dated 2019)

Key:
blackgrass = test: Test C pre-/postemergence herbicide test; type: in vivo, Alopecurus myosuroides
In short: (§1)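 Two application timings ran in parallel with identically formulated test chemicals (non-phytotoxic solvent, surfactant included): spray on seeded loam–sand soil, and spray on emerged plants 2 to 18 cm high. Evaluation at 13 to 15 days compared each species with controls, rated from 0 up to 100.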

wheat = test: Test A pre-/postemergence herbicide test; type: in vivo, Triticum aestivum
In short: (§2)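 Directed soil spray to seeded pots (preemergence) or spray onto one- to two-leaf seedlings 2–10 cm tall (postemergence); loam/sand substrate throughout. Evaluated visually after about 10 days against untreated plants, 0 = no effect, 100 = complete control.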

barnyardgrass = test: Test C pre-/postemergence herbicide test; type: in vivo, Echinochloa crus-galli
From the text: Seeds of plant species selected from blackgrass (Alopecurus myosuroides), ryegrass, Italian (Italian ryegrass, Lolium multiflorum), wheat (winter wheat, Triticum aestivum), galium (catchweed bedstraw, Galium aparine), corn (Zea mays), crabgrass, large (large crabgrass, Digitaria sanguinalis), foxtail, giant (giant foxtail, Setaria faberii), johnsongrass (Sorghum halepense), lambsquarters (Chenopodium album), morningglory (Ipomoea coccinea), nutsedge, yellow (yellow nutsedge, Cyperus esculentus), pigweed (Amaranthus retroflexus), ragweed (common ragweed, Ambrosia elatior), soybean (Glycine max), barnyardgrass (Echinochloa crus-galli), oilseed rape (Brassica napus), waterhemp (common waterhemp, Amaranthus rudis), kochia (Kochia scoparia), oat, wild (wild oat, Avena fatua), surinam grass (Brachiaria decumbens), foxtail, green (green foxtail, Setaria viridis), goosegrass (Eleusine indica), bromegrass, downy (downy bromegrass, Bromus tectorum), nightshade (eastern black nightshade, Solanum ptycanthum), cocklebur (common cocklebur, Xanthium strumarium), cupgrass, woolly (woolly cupgrass, Eriochloa villosa), bermudagrass (Cynodon dactylon), sunflower, (common oilseed sunflower, Helianthus annuus), Russian thistle (Salsola kali) and velvetleaf (Abutilon theophrasti) were planted into a blend of loam soil and sand and treated preemergence with test chemicals formulated in a non-phytotoxic solvent mixture which included a surfactant. At the same time, plants selected from these crop and weed species and also barley (winter barley, Hordeum vulgare), […]), chickweed (common chickweed, Stellaria media), deadnettle (henbit deadnettle, Lamium amplexicaule), and canarygrass (littleseed canarygrass, Phalaris minor) were planted in pots containing Redi-Earth® planting medium (Scotts Company, 14111 Scottslawn Road, Marysville, Ohio 43041) comprising spaghnum peat moss, vermiculite, wetting agent and starter nutrients and treated with postemergence applications of test chemicals formulated in the same manner. Plants ranged in height from 2 to 18 cm (1- to 4-leaf stage) for postemergence treatments. Treated plants and controls were maintained in a greenhouse for 13 to 15 days, after which time all species were compared to controls and visually evaluated. Plant response ratings, summarized in Table C, are based on a scale of 0 to 100 where 0 is no effect and 100 is complete control. A dash (-) response means no test result.

corn = test: Test C pre-/postemergence herbicide test; type: in vivo, Zea mays
In short: as §1

ryegrass, Italian = test: Test C pre-/postemergence herbicide test; type: in vivo, Lolium multiflorum
In short: as §1

galium = test: Test C pre-/postemergence herbicide test; type: in vivo, Galium aparine
In short: as §1

nutsedge, yellow = test: Test C pre-/postemergence herbicide test; type: in vivo, Cyperus esculentus
In short: as §1

pigweed = test: Test A pre-/postemergence herbicide test; type: in vivo, Amaranthus retroflexus
In short: as §2

velvetleaf = test: Test C pre-/postemergence herbicide test; type: in vivo, Abutilon theophrasti
In short: as §1

morningglory = test: Test C pre-/postemergence herbicide test; type: in vivo, Ipomoea coccinea
In short: as §1

[1] = Postemergence, 31 g ai/ha, scale 0 (no effect) to 100 (complete control)
[2] = Postemergence, 62 g ai/ha, scale 0 to 100 (0 no effect, 100 complete control)
[3] = Postemergence, 125 g ai/ha, scale 0 to 100 (0 no effect, 100 complete control)
[4] = Postemergence, 250 g ai/ha, scale 0 to 100 (0 no effect, 100 complete control)
[5] = Preemergence, 31 g ai/ha, scale 0 to 100, 0 is no effect and 100 is complete control
[6] = Preemergence, 62 g ai/ha, scale 0 to 100
[7] = Preemergence, 125 g ai/ha, scale 0 to 100 (0 no effect, 100 complete control)
[8] = Postemergence, 125 g ai/ha, 0 to 100 scale, 0 no effect, 100 complete control
[9] = Postemergence, 500 g ai/ha, 0 to 100 scale (0 no effect, 100 complete control)
[10] = Preemergence, 125 g ai/ha, visual rating on 0 to 100 scale (0 no effect, 100 complete control)
[11] = preemergence, 500 g ai/ha, 0 to 100 scale
[12] = Postemergence, 1000 g ai/ha, 0 to 100 scale (0 no effect, 100 complete control)
[13] = preemergence, 1000 g ai/ha, 0 to 100 scale

O=C1NCC(c2ccc(F)c(F)c2)C1C(=O)Nc1cccc(F)c1F (racemic) [Compound 101]
55: Plant response rating, Morningglory (morningglory; [4])
40: Plant response rating, Galium (galium; [6])
90: Plant response rating (scale of 0 to 100), Blackgrass (blackgrass; Preemergence, 250 g ai/ha) | Plant response rating, Barnyardgrass (barnyardgrass; [4]) | Barnyardgrass plant response rating (barnyardgrass; [5]) | Plant response rating, Galium (galium; [7])
85: Plant response rating (scale of 0 to 100), Galium (galium; Preemergence, 250 g ai/ha)
5: Plant response rating, Blackgrass (blackgrass; [4]) | Plant response rating, Corn (corn; [7]) | Plant response rating, Nutsedge, Yellow (nutsedge, yellow; [4]) | Plant response rating, Velvetleaf (velvetleaf; [7])
65: Plant response rating, Barnyardgrass (barnyardgrass; [3]) | Plant response rating (scale of 0 to 100), Corn (corn; Preemergence, 250 g ai/ha)
0: Plant response rating, Blackgrass (blackgrass; [1]) | Plant response rating, Blackgrass (blackgrass; [2]) | Blackgrass plant response rating (blackgrass; [5]) | Plant response rating, Barnyardgrass (barnyardgrass; [1]) | Plant response rating, Corn (corn; [1]) | Plant response rating, Corn (corn; [2]) | Plant response rating, Corn (corn; [3]) | Plant response rating, Corn (corn; [4]) | Corn plant response rating (corn; [5]) | Plant response rating, Corn (corn; [6]) | Plant response rating, Ryegrass, Italian (ryegrass, Italian; [1]) | Plant response rating, Ryegrass, Italian (ryegrass, Italian; [2]) | Plant response rating, Ryegrass, Italian (ryegrass, Italian; [3]) | Plant response rating, Ryegrass, Italian (ryegrass, Italian; [4]) | Galium plant response rating (galium; [5]) | Plant response rating, Nutsedge, Yellow (nutsedge, yellow; [1]) | Plant response rating, Nutsedge, Yellow (nutsedge, yellow; [2]) | Plant response rating, Nutsedge, Yellow (nutsedge, yellow; [3]) | Nutsedge, Yellow plant response rating (nutsedge, yellow; [5]) | Plant response rating, Nutsedge, Yellow (nutsedge, yellow; [6]) | Plant response rating, Nutsedge, Yellow (nutsedge, yellow; [7]) | Plant response rating (scale of 0 to 100), Nutsedge, Yellow (nutsedge, yellow; Preemergence, 250 g ai/ha) | Plant response rating, Velvetleaf (velvetleaf; [1]) | Plant response rating, Velvetleaf (velvetleaf; [2]) | Plant response rating, Velvetleaf (velvetleaf; [6]) | Morningglory plant response rating (morningglory; [5]) | Plant response rating, Morningglory (morningglory; [6])
25: Plant response rating, Morningglory (morningglory; [3]) | Plant response rating (scale of 0 to 100), Morningglory (morningglory; Preemergence, 250 g ai/ha)
10: Plant response rating, Blackgrass (blackgrass; [3]) | Pigweed plant response rating (pigweed; [10]) | Plant response rating, Velvetleaf (velvetleaf; [3])
60: Plant response rating, Wheat (wheat; [9]) | Wheat plant response rating (wheat; [10])
15: Plant response rating, Ryegrass, Italian (ryegrass, Italian; [6]) | Velvetleaf plant response rating (velvetleaf; [5]) | Plant response rating, Morningglory (morningglory; [1]) | Plant response rating, Morningglory (morningglory; [2])
35: Plant response rating, Barnyardgrass (barnyardgrass; [2])
70: Plant response rating, Blackgrass (blackgrass; [7]) | Plant response rating, Wheat (wheat; [11]) | Plant response rating, Galium (galium; [4]) | Plant response rating, Pigweed (pigweed; [9]) | Plant response rating, Pigweed (pigweed; [11]) | Plant response rating (scale of 0 to 100), Velvetleaf (velvetleaf; Preemergence, 250 g ai/ha)
50: Plant response rating, Blackgrass (blackgrass; [6]) | Plant response rating, Wheat (wheat; [8]) | Plant response rating (scale of 0 to 100), Ryegrass, Italian (ryegrass, Italian; Preemergence, 250 g ai/ha) | Plant response rating, Galium (galium; [1]) | Plant response rating, Galium (galium; [2])
95: Plant response rating, Barnyardgrass (barnyardgrass; [6]) | Plant response rating, Barnyardgrass (barnyardgrass; [7]) | Plant response rating (scale of 0 to 100; 0 is no effect, 100 is complete control), Barnyardgrass (barnyardgrass; Preemergence, 250 g ai/ha)
30: Ryegrass, Italian plant response rating (ryegrass, Italian; [5]) | Plant response rating, Ryegrass, Italian (ryegrass, Italian; [7]) | Plant response rating, Galium (galium; [3]) | Plant response rating, Velvetleaf (velvetleaf; [4]) | Plant response rating, Morningglory (morningglory; [7])
20: Plant response rating, Pigweed (pigweed; [8])

Cc1c(F)cccc1NC(=O)C1C(=O)NCC1c1ccc(F)c(F)c1 (racemic) [Compound 106]
5: Plant response rating, Ryegrass, Italian (ryegrass, Italian; [4]) | Plant response rating, Velvetleaf (velvetleaf; [3]) | Plant response rating, Velvetleaf (velvetleaf; [4]) | Plant response rating, Morningglory (morningglory; [2]) | Plant response rating, Morningglory (morningglory; [4])
35: Plant response rating, Galium (galium; [4])
10: Plant response rating, Morningglory (morningglory; [3])
0: Plant response rating, Blackgrass (blackgrass; [1]) | Plant response rating, Blackgrass (blackgrass; [2]) | Plant response rating, Blackgrass (blackgrass; [3]) | Plant response rating, Blackgrass (blackgrass; [4]) | Plant response rating, Barnyardgrass (barnyardgrass; [1]) | Plant response rating, Barnyardgrass (barnyardgrass; [2]) | Plant response rating, Barnyardgrass (barnyardgrass; [3]) | Plant response rating, Corn (corn; [1]) | Plant response rating, Corn (corn; [2]) | Plant response rating, Corn (corn; [3]) | Plant response rating, Corn (corn; [4]) | Plant response rating, Ryegrass, Italian (ryegrass, Italian; [1]) | Plant response rating, Ryegrass, Italian (ryegrass, Italian; [2]) | Plant response rating, Ryegrass, Italian (ryegrass, Italian; [3]) | Plant response rating, Galium (galium; [1]) | Plant response rating, Galium (galium; [2]) | Plant response rating, Nutsedge, Yellow (nutsedge, yellow; [1]) | Plant response rating, Nutsedge, Yellow (nutsedge, yellow; [2]) | Plant response rating, Nutsedge, Yellow (nutsedge, yellow; [3]) | Plant response rating, Nutsedge, Yellow (nutsedge, yellow; [4]) | Plant response rating, Pigweed (pigweed; [12]) | Plant response rating, Pigweed (pigweed; [13]) | Plant response rating, Velvetleaf (velvetleaf; [1]) | Plant response rating, Velvetleaf (velvetleaf; [2]) | Plant response rating, Morningglory (morningglory; [1])
50: Plant response rating, Wheat (wheat; [13]) | Plant response rating, Galium (galium; [3])
30: Plant response rating, Wheat (wheat; [12]) | Plant response rating, Barnyardgrass (barnyardgrass; [4])
